In patent US10189794B2, “Heteroaryl compounds and uses thereof” (Celgene CAR LLC, priority 2013, dated 2019):
pEC50, pIC50: −log10 of the molar value. Like-named read-outs stand apart in the source and are kept apart here.

Experiments:
MDA-MB-453 cells = assay: Cell proliferation, MDA-MB-453 (CellTiter Glo); type: cell-based; conditions: Homo sapiens; MDA-MB-453; 96 hr; read-out: Cell Proliferation GI50 (nM) MDA
Experimental: For both MDA-MB-453 and Huh7 cells the starting density was 5000 cells per well. The cells were allowed to settle down for 4 hr and were then treated with 5, 1.25, 0.31, 0.078, 0.020 or 0.005 μM of test compound for: 96 hr for MDA-MB-453 and 120 hr for Huh7 cells. Cell viability was determined by CellTiter Glo (Promega, Madison, Wis.) and the results were converted to cell numbers using a standard curve. The growth inhibition (GI50) values were determined by Graph Pad Prism.
The results of these experiments show the ability of compounds to inhibit cell growth in FGFR dependant cell lines and are depicted in Table 8, in the columns titled “Cell Proliferation GI50 (nM)”. MDA-MB-453 cell results fall under the heading “MDA” and Huh7 cell results fall under the heading “Huh.”

[1] = molecular target: FGFR4 in MDA-MB-453 cells (Homo sapiens (Human), UniProt P22455, Y367C); assay: Target occupancy assay with biotinylated covalent probe I-127; type: cell-based; conditions: MDA-MB-453 lysate; 2 μM biotinylated probe I-127
Experimental: In order to assess free FGFR4 protein a biotinylated covalent probe was utilized. […] The reaction was incubated for 2 hr at room temperature. The samples and probe mixture were transferred to a FGFR4-coated MSD plate for 2 hr at room temperature. MSD signals were obtained with an anti-streptavidin Sulfo-tag (Meso Scale) antibody for 1 hr at room temperature.
If a compound completely (100%) covalently modies FGFR4 no free FGFR4 should be available for covalent modification by the biotinylated probe and subsequent binding to streptavidin and detection.

Huh7 cells = assay: Cell proliferation, Huh7 (CellTiter Glo); type: cell-based; conditions: Homo sapiens, Huh-7; Huh7; 120 hr; read-out: Cell Proliferation GI50 (nM) HUH
Experimental: The growth inhibition (GI50) values were determined by Graph Pad Prism.

FGFR4-WT = FGFR4-WT (Homo sapiens (Human), UniProt P22455); assay: Omnia assay for potency assessment against FGFR4 enzyme; type: biochemical
Experimental: A 10× stock solution of FGFR4-WT (PR4380C), (from Invitrogen, Carlsbad, Calif.) corresponding to method a in Table 7, was prepared as described below. Alternatively, a 10× stock solution of FGFR4-WT (F01-11G), (SignalChem, Richmond, BC) corresponding to method b in Table 7, was prepared as described below. A solution of 1.4×ATP (AS001A) and 5×Tyr-Sox conjugated peptide substrate (KNZ3101) were prepared in IX kinase reaction buffer consisting of 20 mM Tris, pH 7.5, 5 mM MgCl2, 1 mM EGTA, 5 mM β-glycerophosphate, 5% glycerol (10× stock, KB002A) and 0.2 mM DTT (DS001A). […] The serially diluted compounds were prepared on a Tecan EVO100. A second addition of 10 μl of Tyr-Sox FGFR4 substrate was added to each well and the kinase reactions were started with the addition of 35 μL of 1.4×ATP. The reactions were monitored every 71 seconds for 240 minutes at λex360/λem485 in a Synergy plate reader from BioTek (Winooski, Vt.).

pFGFR4 in Huh7 cells = pFGFR4 in Huh7 cells (Homo sapiens (Human), UniProt P22455); assay: FGFR4 signaling (phospho-FGFR4) in Huh7 cells, MSD; type: cell-based; conditions: Meso Scale assay (MSD), 1 hr treatment, read-out: Signaling EC50 (nM) pFGFR4 (Huh)
[2] = molecular target: pFGFR4 in MDA-MB-453 cells (Homo sapiens (Human), UniProt P22455, Y367C); assay: FGFR4 signaling (phospho-FGFR4) in MDA-MB-453 cells; type: cell-based; conditions: 1 hr treatment
Experimental: Huh7 cells were grown in DMEM (Invitrogen, Carlsbad, Calif.) supplemented with 10% FBS (Invitrogen) and 1% Penicillin-Streptomycin (P/S, Lonza, Walkersville, Md.).
For the MSD and ELISA assays, total FGFR4 antibodies were obtained from R&D Systems (Minneapolis, Minn.) and used at 1:500. For the immunoblotting (Western blotting) assay, total FGFR4 antibody was obtained from Santa Cruz (Santa Cruz, Calif.) and used at 1:1000. Phospho-FGFR antibodies were obtained from Cell Signaling (Danvers, Mass.) or R&D Systems and used at 1:1000. The phopho-FGFR antibody from Cell Signaling was used for immunoblotting, whereas the phopho-FGFR antibody from R&D was used for MSD and ELISA assays. Secondary antibodies were used at 1:10,000. The goat anti-mouse IgG IRDye 800CW antibody was obtained from LiCor Biosciences (Lincoln, Nebr.) and the goat anti-rabbit IgG Alexa Fluor 680 was obtained from Invitrogen. The anti-rabbit Sulfo-tag and anti-streptavidin Sulfo-tag antibodies was obtained from Meso Scale Discovery (Gaithersburg, Md.), and were used at 1:1000 and 1:5000, respectively.
For MDA-MB-453 cells signaling, cells were grown in 96-well poly-D-lysine plates (BD Bioscience, San Jose, Calif.) to 90% confluence, and were then incubated in low-serum (0.1% FBS) media for 16-18 hr. […] After treatment, the cells were washed with cold PBS (Invitrogen) and were immediately lysed by freeze/thawing 3× in 32 μL of cold Cell Extraction Buffer (Invitrogen) which was supplemented with Complete Protease inhibitors (Roche, Indianapolis, Ind.) and PhosphoSTOP (Roche) phosphatase inhibitors.
Phospho-protein signals were quantitated using Odyssey Infrared Imaging (Li-Cor Biosciences).
To assess phospho-FGFR signaling, the blots were probed with anti-Phospho-FGFR (Y653/Y654) and total anti-FGFR antibodies. The phospho-FGFR signal was normalized to total FGFR expression for each sample. […] The normalized data was fitted using a sigmoidal curve analysis program (Graph Pad Prism version 5) with variable Hill slope to determine the EC50 values.
After treatment, the cells were washed with cold PBS (Invitrogen), and were immediately lysed by freeze/thawing 3× in 32 μL of cold Cell Extraction Buffer (Invitrogen), which was supplemented with Complete Protease inhibitors (Roche) and PhosphoSTOP (Roche) phosphatase inhibitors.
MSD plates (Meso Scale Discovery) were coated with total FGFR-4 antibodies overnight at 4° C. A lysate (25 μL) was added to the MSD plate overnight at 4° C. The MSD signals were obtained by incubating with a phospho-FGFR antibody (R&D Systems) and an anti-rabbit sulfo-tag antibody (Meso Scale), for 2 hr at room temperature. […] The data was fitted using a sigmoidal curve analysis program (Graph Pad Prism version 5) with variable Hill slope to determine the EC50 values.
MDA-MB-453 cells were grown in 96-well poly-D-lysine plates (BD Bioscience, San Jose, Calif.) to 90% confluence. The cells were then incubated in low-serum (0.1% FBS) media for 16-18 hr. […] After treatment, the MDA-MB-453 cells were washed with cold PBS (Invitrogen) and were immediately lysed by freeze/thawing 3× in 32 μL of cold Cell Extraction Buffer (Invitrogen), which was supplemented with Complete Protease inhibitors (Roche) and PhosphoSTOP (Roche) phosphatase inhibitors.
Nunc-immuno plates (96-well; Sigma, St. Louis, Mo.) were coated with total FGFR-4 antibodies overnight at 4° C. A lysate (25 μL) was added to the plate for 2 hr at room temperature. A phospho-FGFR detection antibody (100 μL) was added per well for 2 hr at room temperature, followed by a goat anti-rabbit HRP antibody (100 μL) for 45 min. […] The data was fitted using a sigmoidal curve analysis program (Graph Pad Prism version 5) with variable Hill slope to determine the EC50 values.

[3] = method a: Invitrogen FGFR4-WT 10 nM, ATP 300 uM, Y10-Sox 10 uM, read-out: FGFR4 IC50
[4] = Method A immunoblotting (Western blotting)

FGFR4-WT, sequence (P22455 22-802): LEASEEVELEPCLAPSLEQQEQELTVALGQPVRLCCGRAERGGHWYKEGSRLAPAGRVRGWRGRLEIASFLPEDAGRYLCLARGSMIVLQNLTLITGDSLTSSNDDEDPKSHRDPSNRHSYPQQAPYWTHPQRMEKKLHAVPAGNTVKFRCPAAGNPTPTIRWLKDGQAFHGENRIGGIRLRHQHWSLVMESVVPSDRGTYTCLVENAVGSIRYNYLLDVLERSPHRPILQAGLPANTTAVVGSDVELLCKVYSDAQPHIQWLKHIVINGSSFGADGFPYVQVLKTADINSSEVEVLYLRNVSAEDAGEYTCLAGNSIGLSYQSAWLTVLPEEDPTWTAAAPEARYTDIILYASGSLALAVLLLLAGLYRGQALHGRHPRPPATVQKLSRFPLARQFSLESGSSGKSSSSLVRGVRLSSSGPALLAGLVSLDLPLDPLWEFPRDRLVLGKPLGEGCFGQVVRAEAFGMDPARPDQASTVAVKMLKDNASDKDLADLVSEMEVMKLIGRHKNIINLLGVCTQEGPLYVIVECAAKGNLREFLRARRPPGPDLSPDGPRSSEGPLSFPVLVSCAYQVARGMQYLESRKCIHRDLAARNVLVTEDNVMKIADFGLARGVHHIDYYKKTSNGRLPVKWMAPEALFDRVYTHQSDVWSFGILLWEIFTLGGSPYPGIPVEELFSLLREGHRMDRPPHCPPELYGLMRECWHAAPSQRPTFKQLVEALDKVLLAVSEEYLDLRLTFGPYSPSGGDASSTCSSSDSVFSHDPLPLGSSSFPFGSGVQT
pFGFR4 in Huh7 cells, sequence (P22455 22-802): as above
pFGFR4 in MDA-MB-453 cells, sequence (P22455 22-802 Y367C): as the sequence (P22455 22-802) above, with Y346C counted along it
FGFR4 in MDA-MB-453 cells, sequence (P22455 22-802 Y367C): as the sequence (P22455 22-802) above, with Y346C counted along it

SMILES: C=CC(=O)NC1CCCCC1Nc1ncc2c(n1)N(Cc1cccnc1)C(=O)N(c1c(Cl)c(OC)cc(OC)c1Cl)C2 (racemic) [I-35]
- GI50 (MDA-MB-453 cells): 101 to 500 nM
- pEC50 [1]: 6.30 to 7.00
- GI50 (Huh7 cells): 501 to 999 nM
- pIC50 (FGFR4-WT; [3]): > 7.00

SMILES: C=CC(=O)NC1CCCCC1Nc1ncc2c(n1)N(CC#N)C(=O)N(c1c(Cl)c(OC)cc(OC)c1Cl)C2 (racemic) [I-47]
- EC50 (pFGFR4 in Huh7 cells): 501 to 999 nM
- GI50 (Huh7 cells): > 1000 nM
- pIC50 (FGFR4-WT; [3]): > 7.00

SMILES: C=CC(=O)NC1CCCCC1Nc1ncc2c(n1)N(CCOC)C(=O)N(c1c(Cl)c(OC)cc(OC)c1Cl)C2 (racemic) [I-61]
- GI50 (MDA-MB-453 cells): 101 to 500 nM
- EC50 (pFGFR4 in Huh7 cells): 101 to 500 nM
- pEC50 [1]: 6.30 to 7.00
- GI50 (Huh7 cells): 501 to 999 nM
- pIC50 (FGFR4-WT; [3]): > 7.00

SMILES: C=CC(=O)NC1CCCCC1Nc1ncc2c(n1)N(Cc1ccccc1)C(=O)N(c1c(Cl)c(OC)cc(OC)c1Cl)C2 (racemic) [I-63]
- GI50 (MDA-MB-453 cells): 101 to 500 nM
- pEC50 [1]: 6.30 to 7.00
- GI50 (Huh7 cells): 101 to 500 nM
- pIC50 (FGFR4-WT): > 7.00

SMILES: C=CC(=O)NC1CCCCC1Nc1ncc2c(n1)N(C1CC1)C(=O)N(c1c(Cl)c(OC)cc(OC)c1Cl)C2 (racemic) [I-68]
- GI50 (MDA-MB-453 cells): > 1000 nM
- EC50 (pFGFR4 in Huh7 cells): 501 to 999 nM
- GI50 (Huh7 cells): > 1000 nM
- pIC50 (FGFR4-WT; [3]): 6.30 to 7.00

SMILES: C=CC(=O)NC1CCCCC1Nc1ncc2c(n1)N(C)C(=O)N(c1cc(OC)cc(OC)c1Cl)C2 (racemic) [I-76]
- EC50 (pFGFR4 in Huh7 cells): > 1000 nM
- GI50 (Huh7 cells): > 1000 nM
- pIC50 (FGFR4-WT; [3]): 6.00 to 6.30

SMILES: C=CC(=O)NC1CCCCC1Nc1ncc2c(n1)N(CC(F)F)C(=O)N(c1c(Cl)c(OC)cc(OC)c1Cl)C2 (racemic) [I-105]
- EC50 (pFGFR4 in Huh7 cells): 101 to 500 nM
- GI50 (Huh7 cells): 501 to 999 nM
- pIC50 (FGFR4-WT; [3]): 6.30 to 7.00

SMILES: C=CC(=O)NC1CCCCC1Nc1ncc2c(n1)N(CC(F)F)C(=O)N(c1cc(OC)cc(OC)c1Cl)C2 (racemic) [I-107]
- EC50 (pFGFR4 in Huh7 cells): > 1000 nM
- GI50 (Huh7 cells): > 1000 nM
- pIC50 (FGFR4-WT; [3]): < 6.00

SMILES: C=CC(=O)NC1CCCCC1Nc1ncc2c(n1)N(CCF)C(=O)N(c1cc(OC)cc(OC)c1Cl)C2 (racemic) [I-111]
- EC50 (pFGFR4 in Huh7 cells): > 1000 nM
- GI50 (Huh7 cells): > 1000 nM
- pIC50 (FGFR4-WT; [3]): 6.00 to 6.30

SMILES: C=CC(=O)Nc1ccccc1Nc1ncc2c(n1)N(C)C(=O)N(c1c(Cl)c(OC)cc(OC)c1Cl)C2 [I-2]
- GI50 (MDA-MB-453 cells): < 100 nM
- GI50 (Huh7 cells): 101 to 500 nM
- EC50 [2, 4]: < 100 nM

SMILES: C=CC(=O)Nc1ccccc1Nc1ncc2c(n1)N(Cc1ccccc1)C(=O)N(c1c(Cl)c(OC)cc(OC)c1Cl)C2 [I-3]
- GI50 (MDA-MB-453 cells): < 100 nM
- pEC50 [1]: > 7.00
- GI50 (Huh7 cells): < 100 nM
- EC50 ([2]; Method C ELISA): < 100 nM

SMILES: C=CC(=O)Nc1ccccc1Nc1ncc2c(n1)N(C)C(=O)N(c1cc(OC)cc(OC)c1)C2 [I-5]
- GI50 (MDA-MB-453 cells): 501 to 999 nM
- pEC50 [1]: 6.30 to 7.00
- GI50 (Huh7 cells): > 1000 nM

SMILES: C=CC(=O)Nc1cc(N2CCN(CCOC)CC2)ccc1Nc1ncc2c(n1)N(Cc1cccc(NC(=O)CC)c1)C(=O)N(c1cc(OC)cc(OC)c1)C2 [I-9]
- GI50 (MDA-MB-453 cells): < 100 nM
- pEC50 [1]: > 7.00
- GI50 (Huh7 cells): 501 to 999 nM

SMILES: C=CC(=O)Nc1cc(N(C)CCOC)ccc1Nc1ncc2c(n1)N(Cc1ccccc1)C(=O)N(c1cc(OC)cc(OC)c1)C2 [I-13]
- GI50 (MDA-MB-453 cells): 101 to 500 nM
- pEC50 [1]: 6.30 to 7.00
- GI50 (Huh7 cells): > 1000 nM

SMILES: C=CC(=O)Nc1cc(N2CCOCC2)ccc1Nc1ncc2c(n1)N(C)C(=O)N(c1cc(OC)cc(OC)c1)C2 [I-17]
- GI50 (MDA-MB-453 cells): 101 to 500 nM
- pEC50 [1]: 6.30 to 7.00

SMILES: C=CC(=O)Nc1cc(N2CCN(CCOC)CC2)ccc1Nc1ncc2c(n1)N(C)C(=O)N(c1cc(OC)cc(OC)c1)C2 [I-20]
- GI50 (MDA-MB-453 cells): < 100 nM
- pEC50 [1]: 6.30 to 7.00

SMILES: C=CC(=O)Nc1cc(N(C)CCOC)ccc1Nc1ncc2c(n1)N(C)C(=O)N(c1cc(OC)cc(OC)c1)C2 [I-21]
- GI50 (MDA-MB-453 cells): 101 to 500 nM
- pEC50 [1]: 6.30 to 7.00
- GI50 (Huh7 cells): 501 to 999 nM

SMILES: C=CC(=O)Nc1ccccc1Nc1ncc2c(n1)N(Cc1ccc(F)cc1)C(=O)N(c1c(Cl)c(OC)cc(OC)c1Cl)C2 [I-25]
- GI50 (MDA-MB-453 cells): < 100 nM
- pEC50 [1]: 6.30 to 7.00
- GI50 (Huh7 cells): 501 to 999 nM

SMILES: C=CC(=O)Nc1ccccc1Nc1ncc2c(n1)N(Cc1cccc(N)c1)C(=O)N(c1c(Cl)c(OC)cc(OC)c1Cl)C2 [I-26]
- GI50 (MDA-MB-453 cells): < 100 nM
- pEC50 [1]: > 7.00
- GI50 (Huh7 cells): < 100 nM

SMILES: C=CC(=O)Nc1ccccc1Nc1ncc2c(n1)N(Cc1cccnc1)C(=O)N(c1cc(OC)cc(OC)c1)C2 [I-44]
- GI50 (MDA-MB-453 cells): 101 to 500 nM
- pEC50 [1]: 6.30 to 7.00
- GI50 (Huh7 cells): > 1000 nM

SMILES: C=CC(=O)Nc1cc(N2CCN(C(C)=O)CC2)ccc1Nc1ccc2c(c1)N(C)C(=O)N(c1cc(OC)cc(OC)c1)C2 [I-55]
- GI50 (MDA-MB-453 cells): 101 to 500 nM
- pEC50 [1]: 6.30 to 7.00
- GI50 (Huh7 cells): 101 to 500 nM
- pIC50 (FGFR4-WT; [3]): > 7.00

SMILES: C=CC(=O)Nc1ccccc1Nc1ncc2c(n1)N(CCOC)C(=O)N(c1cc(OC)cc(OC)c1)C2 [I-59]
- GI50 (MDA-MB-453 cells): 501 to 999 nM
- pEC50 [1]: 6.30 to 7.00
- GI50 (Huh7 cells): > 1000 nM

SMILES: C=CC(=O)N[C@H]1CCCC[C@H]1Nc1ncc2c(n1)N(Cc1cscn1)C(=O)N(c1c(Cl)c(OC)cc(OC)c1Cl)C2 [I-114]
- GI50 (MDA-MB-453 cells): 101 to 500 nM
- pEC50 [1]: 6.30 to 7.00
- GI50 (Huh7 cells): 101 to 500 nM
- pIC50 (FGFR4-WT; read-out: FGFR4 IC50): > 7.00

SMILES: C=CC(=O)NC1COCC1Nc1ncc2c(n1)N(C)C(=O)N(c1c(Cl)c(OC)cc(OC)c1Cl)C2 (stereo not shown) [I-126]
- GI50 (MDA-MB-453 cells): < 100 nM
- pEC50 [1]: > 7.00
- GI50 (Huh7 cells): 101 to 500 nM

SMILES: C=CC(=O)Nc1ccccc1Nc1ncc2c(n1)N(Cc1csc(C)n1)C(=O)N(c1c(Cl)c(OC)cc(OC)c1Cl)C2 [I-134]
- GI50 (MDA-MB-453 cells): < 100 nM
- pEC50 [1]: > 7.00

SMILES: C=CC(=O)NCc1ccccc1Nc1ncc2c(n1)N(Cc1cccc(NC(=O)CC)c1)C(=O)N(c1c(Cl)c(OC)cc(OC)c1Cl)C2 [I-179]
- GI50 (MDA-MB-453 cells): 101 to 500 nM
- GI50 (Huh7 cells): 101 to 500 nM
- EC50 [2, 4]: < 100 nM

SMILES: C=CC(=O)Nc1ccccc1CNc1ncc2c(n1)N(Cc1cccc(NC(=O)CC)c1)C(=O)N(c1c(Cl)c(OC)cc(OC)c1Cl)C2 [I-180]
- EC50 ([2]; Method C ELISA): < 100 nM

SMILES: C=CC(=O)Nc1cccc(Nc2ncc3c(n2)N(Cc2cccc(NC(=O)CC)c2)C(=O)N(c2c(Cl)c(OC)cc(OC)c2Cl)C3)c1 [I-232]
- EC50 [2, 4]: < 100 nM
- pIC50 (FGFR4-WT; read-out: FGFR4 IC50): > 7.00

SMILES: C=CC(=O)Nc1ccc(Nc2ncc3c(n2)N(Cc2cccc(NC(=O)CC)c2)C(=O)N(c2c(Cl)c(OC)cc(OC)c2Cl)C3)cc1 [I-233]
- EC50 [2, 4]: < 100 nM
- pIC50 (FGFR4-WT; method b: SignalChem FGFR4-WT 2.5 nM, ATP 250 uM, Y10-Sox 10 uM, read-out: FGFR4 IC50): > 7.00
